Laboratory results: ChEMBL document CHEMBL3885861, “Open TG-GATES”

Species: Rattus norvegicus
Experiment: Open TG-GATES - Regimen: Daily Repeat
Type: toxicity, organism-based, Sprague-Dawley
Set-up: regimen Daily Repeat, gender Male, age 6 weeks
Settings: in vivo, po, route gavage; for KIDNEY_L / KIDNEY_R / KIDNEY_TOTAL: tissue Kidney; for LIVER: tissue Liver; for ALP / AST / BUN / CRE / Ca / Cl / DBIL / GLC / IP / LDH / Na / PL / RALB / TBIL / TC / TG / TP / gamma-GTP: tissue Plasma
[1] = 10 mg/kg, 72 h, tissue Blood, dose level Low, time 3 day
[2] = 10 mg/kg, 72 h, dose level Low, time 3 day
[3] = 10 mg/kg, […], dose level Low, time 7 day
[4] = 10 mg/kg, […], dose level Low, time 14 day
[5] = 10 mg/kg, […], dose level Low, time 28 day
[6] = 10 mg/kg, […], tissue Blood, dose level Low, time 7 day
[7] = 10 mg/kg, […], tissue Blood, dose level Low, time 14 day
[8] = 10 mg/kg, […], tissue Blood, dose level Low, time 28 day

## CC(=O)N1CCN(c2ccc(OCC3COC(Cn4ccnc4)(c4ccc(Cl)cc4Cl)O3)cc2)CC1 (stereo unspecified) [KETOCONAZOLE]
[1]
  APTT: 19.5 s
  Bas: 0%
  Eos: 0.8%
  Fbg: 308.2 mg/dL
  Hb: 12.9 g/dL
  Ht: 37.7%
  Lym: 82.6%
  MCH: 21.8 pg
  MCV: 64 fL
  Mono: 2%
  Neu: 13.6%
  PT: 16.3 s
  Plat: 122.8 x10_4/uL
  RBC: 589.4 x10_4/ul
  Ret: 6.6%
  WBC: 82 x10_2/uL
[2]
  KIDNEY_L: 1 g
  KIDNEY_R: 1 g
  KIDNEY_TOTAL: 2.1 g
  LIVER: 11.3 g
  ALP: 1629.2 IU/L
  AST: 75 IU/L
  BUN: 18.2 mg/dL
  CRE: 0.2 mg/dL
  Ca: 11 mg/dL
  Cl: 106.6 meq/L
  DBIL: 0 mg/dL
  GLC: 184.8 mg/dL
  IP: 6.6 mg/dL
  LDH: 226 IU/L
  Na: 140.8 meq/L
  PL: 152.6 mg/dL
  RALB: 3 g/dL
  TBIL: 0.006 mg/dL
  TC: 78 mg/dL
  TG: 100.6 mg/dL
  TP: 5.7 g/dL
  gamma-GTP: 1 IU/L
[3]
  TERMINAL_BW: 260.1 g
  KIDNEY_L: 1.1 g
  KIDNEY_R: 1.1 g
  KIDNEY_TOTAL: 2.1 g
  LIVER: 12.1 g
  ALP: 1544.4 IU/L
  AST: 68.4 IU/L
  BUN: 19 mg/dL
  CRE: 0.2 mg/dL
  Ca: 10.6 mg/dL
  Cl: 107 meq/L
  DBIL: 0 mg/dL
  GLC: 193 mg/dL
  IP: 6.9 mg/dL
  LDH: 228.6 IU/L
  Na: 142 meq/L
  PL: 144 mg/dL
  RALB: 3 g/dL
  TBIL: 0.004 mg/dL
  TC: 71.6 mg/dL
  TG: 120.2 mg/dL
  TP: 5.7 g/dL
  gamma-GTP: 1.2 IU/L
[4]
  TERMINAL_BW: 306.4 g
  KIDNEY_L: 1.3 g
  KIDNEY_R: 1.3 g
  KIDNEY_TOTAL: 2.5 g
  LIVER: 13.7 g
  ALP: 1416.2 IU/L
  AST: 67.6 IU/L
  BUN: 17.6 mg/dL
  CRE: 0.2 mg/dL
  Ca: 10.6 mg/dL
  Cl: 107 meq/L
  DBIL: 0 mg/dL
  GLC: 182.2 mg/dL
  IP: 6.4 mg/dL
  LDH: 187.6 IU/L
  Na: 143 meq/L
  PL: 155.2 mg/dL
  RALB: 3.1 g/dL
  TBIL: 0.004 mg/dL
  TC: 77.8 mg/dL
  TP: 5.8 g/dL
  gamma-GTP: 1 IU/L
[5]
  TERMINAL_BW: 374.4 g
  KIDNEY_L: 1.4 g
  KIDNEY_R: 1.4 g
  KIDNEY_TOTAL: 2.8 g
  LIVER: 15.6 g
  ALP: 1283.8 IU/L
  AST: 59.2 IU/L
  BUN: 17.8 mg/dL
  CRE: 0.2 mg/dL
  Ca: 10.4 mg/dL
  Cl: 107.6 meq/L
  DBIL: 0 mg/dL
  GLC: 182.4 mg/dL
  IP: 5.4 mg/dL
  LDH: 138.4 IU/L
  Na: 143 meq/L
  PL: 140.6 mg/dL
  RALB: 3.2 g/dL
  TBIL: 0.004 mg/dL
  TC: 69.8 mg/dL
  TG: 121.2 mg/dL
  TP: 6.1 g/dL
  gamma-GTP: 1.2 IU/L
[6]
  APTT: 21.2 s
  Bas: 0%
  Eos: 1.2%
  Fbg: 311 mg/dL
  Hb: 13.6 g/dL
  Ht: 40.3%
  Lym: 80%
  MCH: 21 pg
  MCV: 62.2 fL
  Mono: 2.4%
  Neu: 15.6%
  PT: 16.2 s
  Plat: 111.8 x10_4/uL
  RBC: 648.6 x10_4/ul
  Ret: 5.4%
  WBC: 117 x10_2/uL
[7]
  APTT: 21.3 s
  Bas: 0%
  Eos: 0.8%
  Fbg: 308.2 mg/dL
  Hb: 13.6 g/dL
  Ht: 40.2%
  Lym: 81.6%
  MCH: 20.3 pg
  MCHC: 33.8%
  MCV: 60.1 fL
  Mono: 1.2%
  Neu: 14.6%
  PT: 15.9 s
  Plat: 118 x10_4/uL
  RBC: 669.2 x10_4/ul
  Ret: 4.4%
  WBC: 116.4 x10_2/uL
[8]
  APTT: 23.8 s
  Bas: 0%
  Eos: 1%
  Fbg: 308.8 mg/dL
  Hb: 14.8 g/dL
  Ht: 43.5%
  Lym: 80.8%
  MCV: 56.9 fL
  Mono: 1.8%
  Neu: 15.2%
  PT: 16.8 s
  Plat: 108.8 x10_4/uL
  RBC: 764.6 x10_4/ul
  Ret: 2.6%
  WBC: 109.3 x10_2/uL
30 mg/kg, 72 h, dose level Middle, time 3 day
  TERMINAL_BW: 228.5 g
30 mg/kg, 72 h, tissue Blood, dose level Middle, time 3 day
  APTT: 20.7 s
